Assay results taken from article PMC11811597, “Phenomics‐Based Discovery of Novel Orthosteric Choline Kinase Inhibitors” (Angewandte Chemie (International Ed. in English), 2025).

Target: T1, EHMT2 (G9a) (Homo sapiens, UniProt Q96KQ7)
T1 sequence (Q96KQ7 1-1210): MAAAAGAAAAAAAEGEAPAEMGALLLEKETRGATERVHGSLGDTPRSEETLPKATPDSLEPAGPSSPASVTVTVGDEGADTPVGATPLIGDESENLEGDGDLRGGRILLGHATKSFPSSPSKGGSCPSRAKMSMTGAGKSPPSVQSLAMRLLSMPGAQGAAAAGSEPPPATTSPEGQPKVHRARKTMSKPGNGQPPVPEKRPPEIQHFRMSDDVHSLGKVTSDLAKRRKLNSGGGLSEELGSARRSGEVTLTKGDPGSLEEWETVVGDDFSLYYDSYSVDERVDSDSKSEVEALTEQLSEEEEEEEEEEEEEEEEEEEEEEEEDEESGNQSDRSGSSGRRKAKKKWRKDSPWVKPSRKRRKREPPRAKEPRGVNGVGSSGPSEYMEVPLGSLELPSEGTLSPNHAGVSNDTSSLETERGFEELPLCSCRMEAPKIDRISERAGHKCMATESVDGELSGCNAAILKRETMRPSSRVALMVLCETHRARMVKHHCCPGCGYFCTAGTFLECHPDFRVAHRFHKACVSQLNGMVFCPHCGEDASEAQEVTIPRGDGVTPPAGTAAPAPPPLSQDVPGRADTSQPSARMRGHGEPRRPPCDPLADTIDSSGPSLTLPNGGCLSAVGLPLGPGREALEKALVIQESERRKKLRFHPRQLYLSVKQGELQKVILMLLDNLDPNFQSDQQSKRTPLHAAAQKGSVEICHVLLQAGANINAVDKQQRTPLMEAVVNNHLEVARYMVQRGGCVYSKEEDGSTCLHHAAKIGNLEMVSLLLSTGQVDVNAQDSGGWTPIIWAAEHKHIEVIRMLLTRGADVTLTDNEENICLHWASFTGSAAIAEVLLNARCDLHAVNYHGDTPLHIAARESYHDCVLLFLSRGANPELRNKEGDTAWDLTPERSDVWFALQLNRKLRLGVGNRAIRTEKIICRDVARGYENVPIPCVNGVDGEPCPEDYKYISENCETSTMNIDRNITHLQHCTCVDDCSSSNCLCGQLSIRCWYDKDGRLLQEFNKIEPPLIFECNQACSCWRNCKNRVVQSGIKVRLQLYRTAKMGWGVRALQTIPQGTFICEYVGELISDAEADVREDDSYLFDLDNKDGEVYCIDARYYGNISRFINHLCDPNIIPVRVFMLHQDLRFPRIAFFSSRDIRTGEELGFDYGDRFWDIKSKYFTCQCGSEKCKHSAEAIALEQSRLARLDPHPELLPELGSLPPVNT
Assay: Competitive affinity-based chemoproteomics (UNC0965 matrix), MCF7 lysate
Type: binding
Parameters: endogenous in cells; host or cells: MCF7 whole cell lysate
Conditions: MCF7 lysates, 20 μM competitor
Protocol: A-366 and UNC0638 were purchased from Tocris. ARIAD and V-11-07-11 were purchased from Wuxi Apptec. UNC0737 and UNC0965 were synthesised as previously described.[1] Hemicholinium-3 and pyruvate kinase/lactic dehydrogenase enzymes were purchased from Sigma Aldrich. Aqueous and organic solvents were MS-grade and acquired by Sigma Aldrich unless stated otherwise.
MDA-MB-231, MCF7 and HEK293 cells were cultured in DMEM (Gibco, #11965092) supplemented with 10% FBS. K562 were cultured in IMDM (Gibco, #12440053) supplemented with 10% FBS. HepG2 were cultured in MEM (Gibco, #11095080) supplemented with 10 % FBS. […]
cultured in McCoy’s 5A (Sigma, M8403) supplemented with 10 % FBS and 1x GlutaMAX (Gibco, #35050061). Cells were maintained at 37 °C in a humidified 5% CO2 atmosphere. Peripheral blood mononuclear cells (PBMC) were isolated from healthy blood donors by density centrifugation. […]
Cell Titer-Glo® reagent was added to each well and total luminescence readings were performed within 15 min using the PHERAstar FSX (BMG Labtech). […]
Digested samples were analysed by nano-UPLC–MS/MS using a Dionex Ultimate 3000 nano UPLC fitted with an EASY spray column (75 μm × 500 mm, 2 μm particle size, Thermo Scientific), coupled to an Orbitrap Q Exactive instrument. […]

Row | SMILES | competition for EHMT2 (G9a) binding to affinity matrix
1 | COc1cc2c(NC3CCN(C(C)C)CC3)nc(C3CCCCC3)nc2cc1OCCCN1CCCC1 [UNC0638] | strong enrichment and competition
2 | COc1cc2c(N(C)C3CCN(C(C)C)CC3)nc(C3CCCCC3)nc2cc1OCCCN1CCCC1 [UNC0737] | did not ablate binding
